The results in this text go back to patent US12643887B2, “Heterocyclic derivatives with cardiomyocyte proliferation activity for treatment of heart diseases” (Tongji University, priority 2019, dated 2026).

In one test the target is T1, human GSK3 beta (Homo sapiens, UniProt P49841).
T1 construct: Recombinant full-length human GSK3 beta (expressed in Sf9 insect cells with an N-terminal His tag); His (N); purchased SignalChem G09-10H; host or cells: Sf9 insect cells
In words: GSK3 beta enzyme assay (ADP-Glo). The format is biochemical. The following applies: ATP 25 μM, read-out: GSK3b IC50. The procedure: 1. GSK3 Beta Enzyme Assay
The ability of compounds to inhibit human GSK3 beta kinase activities was determined using a commercially available ADP-Glo™ Kinase Assay kit (Promega, Cat #V9102) according to the manufacturer's protocol. The ADP-Glo™ Kinase Assay is a luminescent ADP detection assay that provides a universal, homogeneous, high-throughput screening method to measure kinase activity by quantifying the amount of ADP produced during a kinase reaction. The ADP-Glo™ Kinase Assay can be used to monitor the activity of virtually any ADP-generating enzymes (e.g., kinases or ATPases).
Recombinant full-length human GSK3 beta (expressed in Sf9 insect cells with an N-terminal His tag) was purchased from SignalChem (Cat #G09-10H). The GSK3 substrate peptide (sequence: […](pS)EDEEE) was purchased from SignalChem (Cat #G50-58). This assay, run in a 384-well plate format, is a generic method for measuring kinase activities using an ADP-Glo Kinase Assay Kit. The basic assay procedure involves two steps: (1) Enzymatic step: inhibitors are incubated with the kinase and then ATP (included in the ADP-Glo Kinase Assay Kit) and the GSK3 substrate peptide are added to start the enzymatic reaction; (2) Detection step: after the kinase reaction, first ADP-Glo™ Reagent is added to terminate the kinase reaction and deplete the remaining ATP. Second, the Kinase Detection Reagent is added to simultaneously convert ADP to ATP and allow the newly synthesized ATP to be measured using a luciferase/luciferin reaction. The light generated is measured using a luminometer.
Briefly, GSK3 beta (4 nM) in the enzymatic buffer solutions (40 mM Tris, pH 7.5, 20 mM MgCl2, 0.1 mg/ml BSA, 50 μM DTT) were mixed with various concentrations of inhibitors (dissolved in 100% DMSO). These solutions were incubated for 30 minutes at 25° C., and subsequently a mixture of substrate peptide and ATP was added with the final peptide and ATP concentrations at 13 μM and 25 μM, respectively. The final reaction mixture of enzyme-substrate-ATP-compound was incubated for 60 minutes at 25° C.
(§1) Afterwards ADP-Glo™ Reagent was added and the mixture was incubated at 25° C. for 60 minutes. Then Kinase Detection Reagent was added and the final mixture was incubated at 25° C. for 60 minutes. The luminescence signal of the final solution was measured on an Envision instrument (PerkinElmer). The percent (%) inhibition at each concentration of a compound is calculated relative to the luminescence signal in the Max and Min control wells contained within each assay plate. […] The concentrations and percent inhibition values for a test compound are plotted and the concentration of the compound required to achieve 50% inhibition (IC50) is determined with a four-parameter logistic dose response equation.
Background: ADP-Glo turns the ADP formed in a reaction into a luminescent signal.

Another test addresses T2, human DYRK1A (Homo sapiens, UniProt Q13627).
T2 construct: Recombinant full-length DYRK1A (expressed in E. Coli cells with an N-terminal GST tag); GST (N); purchased SignalChem D09-10G; host or cells: E. coli
In words: DYRK1A enzyme assay (ADP-Glo). As to conditions: ADP-Glo, ATP 60 μM; read-out: DYRK1A IC50. The format is biochemical. The protocol:
The ability of compounds to inhibit human DYRK1A kinase activities was determined using a commercially available ADP-Glo™ Kinase Assay kit (Promega, Cat #V9102) according to the manufacturer's protocol.
Recombinant full-length DYRK1A (expressed in E. Coli cells with an N-terminal GST tag) was purchased from SignalChem (Cat #D09-10G). The DYRK substrate peptide (DYRKtide, sequence: […]) was purchased from SignalChem (Cat #D96-58). This assay, run in a 384-well plate format, is a generic method for measuring kinase activities using an ADP-Glo Kinase Assay Kit. The basic assay procedure involves two steps: (1) Enzymatic step: inhibitors are incubated with the kinase and then ATP (included in the ADP-Glo Kinase Assay Kit) and the DYRKtide are added to start the enzymatic reaction; (2) Detection step: after the kinase reaction, first ADP-Glo™ Reagent is added to terminate the kinase reaction and deplete the remaining ATP. Second, the Kinase Detection Reagent is added to simultaneously convert ADP to ATP and allow the newly synthesized ATP to be measured using a luciferase/luciferin reaction. The light generated is measured using a luminometer.
Briefly, DYRK1A (3 nM) in the enzymatic buffer solutions (40 mM Tris, pH 7.5, 20 mM MgCl2, 0.1 mg/ml BSA, 50 μM DTT) were mixed with various concentrations of inhibitors (dissolved in 100% DMSO). These solutions were incubated for 30 minutes at 25° C., and subsequently a mixture of substrate peptide and ATP was added with the final peptide and ATP concentrations at 20 μM and 60 μM, respectively. The final reaction mixture of enzyme-substrate-ATP-compound was incubated for 60 minutes at 25° C.
as §1

T1 sequence (P49841 whole entry): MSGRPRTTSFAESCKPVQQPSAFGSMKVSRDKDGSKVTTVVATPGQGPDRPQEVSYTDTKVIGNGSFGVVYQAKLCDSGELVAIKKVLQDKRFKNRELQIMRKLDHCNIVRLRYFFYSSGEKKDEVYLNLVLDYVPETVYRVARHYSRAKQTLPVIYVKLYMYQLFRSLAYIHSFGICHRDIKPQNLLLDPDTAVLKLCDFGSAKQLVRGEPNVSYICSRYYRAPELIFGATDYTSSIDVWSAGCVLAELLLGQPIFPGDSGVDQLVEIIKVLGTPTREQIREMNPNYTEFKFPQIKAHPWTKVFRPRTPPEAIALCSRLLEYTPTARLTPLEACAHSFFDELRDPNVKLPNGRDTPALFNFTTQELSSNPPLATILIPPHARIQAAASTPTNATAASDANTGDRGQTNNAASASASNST

With `O=C1NC(N(Cc2ccccc2)c2ccccc2)=N/C1=C\c1ccc2[nH]cnc2c1` [Example 35, (Z)-5-((1H-benzo[d]imidazol-5-yl)methylene)-2-(benzyl(phenyl)amino)-3,5-dihydro-4H-imidazol-4-one], the IC50 (in general, the midpoint of a concentration-inhibition curve) was over 10 µM at human GSK3 beta and 1 to 10 µM on human DYRK1A.

Turning to `NC(=O)CCN(C1=N/C(=C\c2ccc3c(c2)OCO3)C(=O)N1)c1ccccc1` [Example 36, (Z)-3-((4-(benzo[d][1,3]dioxol-5-ylmethylene)-5-oxo-4,5-dihydro-1H-imidazol-2-yl)(phenyl)amino)propanamide], the IC50 on human GSK3 beta was over 10 µM; at human DYRK1A, 0.1 to 1 µM.

`CN(C1=N/C(=C\c2ccc3c(c2)OCO3)C(=O)N1)c1ccc(N)cc1` [Example 37, (Z)-2-((4-aminophenyl)(methyl)amino)-5-(benzo[d][1,3]dioxol-5-ylmethylene)-3,5-dihydro-4H-imidazol-4-one]: the IC50 on human GSK3 beta was over 10 µM; at human DYRK1A it was 1 to 10 µM.

`COc1ccc(N(C)C2=N/C(=C\c3ccc4ncsc4c3)C(=O)N2)cc1` [Example 38, (Z)-5-(benzo[d]thiazol-6-ylmethylene)-2-((4-methoxyphenyl)(methyl)amino)-3,5-dihydro-4H-imidazol-4-one]: the results for the IC50 at human GSK3 beta and at human DYRK1A were over 10 µM and 0.1 to 1 µM, respectively.

With `O=C1NC(N(CC2CC2)c2ccccc2)=N/C1=C\c1ccc2c(c1)OCCO2` [Example 39, (Z)-2-((cyclopropylmethyl)(phenyl)amino)-5-((2,3-dihydrobenzo[b][1,4]dioxin-6-yl)methylene)-3,5-dihydro-4H-imidazol-4-one], the IC50 is over 10 µM at human GSK3 beta and 1 to 10 µM at human DYRK1A.

As to `O=C1NC(N(Cc2ccccc2)c2ccccc2)=N/C1=C\c1ccc2ncsc2c1` [Example 41, (Z)-5-(benzo[d]thiazol-6-ylmethylene)-2-(benzyl(phenyl)amino)-3,5-dihydro-4H-imidazol-4-one], the IC50 lay within 1 to 10 µM at human GSK3 beta and 0.1 to 1 µM on human DYRK1A.

Turning to `O=C1/C(=C/c2ccc3ncsc3c2)N=C(N(Cc2ccccc2)c2ccccc2)N1Cc1ccccc1` [Example 42, (Z)-5-(benzo[d]thiazol-6-ylmethylene)-3-benzyl-2-(benzyl(phenyl)amino)-3,5-dihydro-4H-imidazol-4-one], the IC50 at human GSK3 beta and at human DYRK1A was over 10 µM throughout.

As to `CN(C1=N/C(=C\c2ccc3ncsc3c2)C(=O)N1)c1ccc([N+](=O)[O-])cc1` [Example 43, (Z)-5-(benzo[d]thiazol-6-ylmethylene)-2-(methyl(4-nitrophenyl)amino)-3,5-dihydro-4H-imidazol-4-one], the IC50 at human GSK3 beta is over 10 µM; on human DYRK1A, 1 to 10 µM.

With `CN(C1=N/C(=C\c2ccc3ncsc3c2)C(=O)N1)c1ccc(N)cc1` [Example 44, (Z)-2-((4-aminophenyl)(methyl)amino)-5-(benzo[d]thiazol-6-ylmethylene)-3,5-dihydro-4H-imidazol-4-one], the figures for the IC50 on human GSK3 beta and at human DYRK1A were 1 to 10 µM and 0.1 to 1 µM, respectively.

As for `CC(C)NC1=N/C(=C\c2ccc3ncsc3c2)C(=O)N1C` [Example 45, (Z)-5-(benzo[d]thiazol-6-ylmethylene)-2-(isopropylamino)-3-methyl-3,5-dihydro-4H-imidazol-4-one], the IC50 at human GSK3 beta was in the range of 1 to 10 µM; at human DYRK1A, 0.1 to 1 µM.

Consider `Cn1cnc2ccc(/C=C3\N=C(Nc4ccccc4)NC3=O)cc21` [Example 46, (Z)-5-((1-methyl-1H-benzo[d]imidazol-6-yl)methylene)-2-(phenylamino)-3,5-dihydro-4H-imidazol-4-one], for which the IC50 is 0.1 to 1 µM at human GSK3 beta and under 0.1 µM on human DYRK1A.

As to `O=C1NC(Nc2ccc3ncsc3c2)=N/C1=C\c1ccc2c(c1)OCO2` [Example 47, (Z)-5-(benzo[d][1,3]dioxol-5-ylmethylene)-2-(benzo[d]thiazol-6-ylamino)-3,5-dihydro-4H-imidazol-4-one], the IC50 on human GSK3 beta and at human DYRK1A was over 10 µM in each case.

In the case of `CC(C)NC1=N/C(=C\c2ccc3scnc3c2)C(=O)N1` [Example 49, (Z)-5-(benzo[d]thiazol-5-ylmethylene)-2-(isopropylamino)-3,5-dihydro-4H-imidazol-4-one], the IC50 on human GSK3 beta and at human DYRK1A was over 10 µM throughout.

Consider `O=C1NC(NC23CC4CC(CC(C4)C2)C3)=N/C1=C\c1ccc2scnc2c1` [Example 50, (Z)-2-(adamantan-1-ylamino)-5-(benzo[d]thiazol-5-ylmethylene)-3,5-dihydro-4H-imidazol-4-one], for which the IC50 was over 10 µM on human GSK3 beta and 1 to 10 µM on human DYRK1A.

On to `O=C1NC(Nc2ccccc2)=N/C1=C\c1ccc2[nH]ccc2c1` [Example 51, (Z)-5-((1H-indol-5-yl)methylene)-2-(phenylamino)-3,5-dihydro-4H-imidazol-4-one], for which the half-maximal inhibitory concentration (IC50) on human GSK3 beta and at human DYRK1A was over 10 µM each time.

Regarding `O=C1NC(Nc2ccccc2)=N/C1=C\c1ccc2occc2c1` [Example 52, (Z)-5-(benzofuran-5-ylmethylene)-2-(phenylamino)-3,5-dihydro-4H-imidazol-4-one], the IC50 at human GSK3 beta and at human DYRK1A was over 10 µM in each case.

Turning to `O=C1NC(Nc2ccccc2)=N/C1=C\c1ccc2ncccc2c1` [Example 53, (Z)-2-(phenylamino)-5-(quinolin-6-ylmethylene)-3,5-dihydro-4H-imidazol-4-one], the IC50 on human GSK3 beta was over 10 µM; on human DYRK1A, under 0.1 µM.

`O=C1NC(Nc2ccccc2)=N/C1=C\c1ccc2cn[nH]c2c1` [Example 54, (Z)-5-((1H-indazol-6-yl)methylene)-2-(phenylamino)-3,5-dihydro-4H-imidazol-4-one]: the IC50 at human GSK3 beta and at human DYRK1A was over 10 µM each time.

With `O=C1NC(Nc2ccccc2)=N/C1=C\c1ccc2[nH]ncc2c1` [Example 55, (Z)-5-((1H-indazol-5-yl)methylene)-2-(phenylamino)-3,5-dihydro-4H-imidazol-4-one], the IC50 at human GSK3 beta was 0.1 to 1 µM; on human DYRK1A it was under 0.1 µM.

For the compound `O=C1NC(Nc2ccccc2)=N/C1=C\c1ccc2nn[nH]c2c1` [Example 56, (Z)-5-((1H-benzo[d][1,2,3]triazol-6-yl)methylene)-2-(phenylamino)-3,5-dihydro-4H-imidazol-4-one], the half-maximal inhibitory concentration (IC50) at human GSK3 beta is 1 to 10 µM; on human DYRK1A, under 0.1 µM.

For the compound `O=C1NC(Nc2ccc3ncsc3c2)=N/C1=C\c1ccc2[nH]ccc2c1` [Example 58, (Z)-5-((1H-indol-5-yl)methylene)-2-(benzo[d]thiazol-6-ylamino)-3,5-dihydro-4H-imidazol-4-one], the IC50 at human GSK3 beta and at human DYRK1A was over 10 µM throughout.

Consider `O=C1NC(Nc2ccc3ncsc3c2)=N/C1=C\c1ccc2occc2c1` [Example 59, (Z)-2-(benzo[d]thiazol-6-ylamino)-5-(benzofuran-5-ylmethylene)-3,5-dihydro-4H-imidazol-4-one], for which the IC50 on human GSK3 beta and on human DYRK1A was over 10 µM throughout.
